Assay results as given in patent publication US20110250613A1, “Arrayed Multiple Ubiquitin Binding Domains as Linkage-specific Polyubiquitin Affinity Reagents” (THE JOHNS HOPKINS UNIVERSITY, priority 2009, published 2011).
Values joined by “and” are separate entries in the source; they are usually repeats but may differ in a detail not shown here. Equal values may be shown once. Values belong to the substance of their own block, whether it stands above or below them. Where no end group is shown, it is not given here. The star is where a group is joined. Fluorescein(5-Mal) = O=C1OC2(c3ccc(O)cc3Oc3cc(O)ccc32)c2ccc(N3C(=O)CC(*)C3=O)cc21

Columns and labels:
K63-Ub2 = molecular target: T1, K63-Ub2 (Homo sapiens, UniProt P0CG47, K63R); assay: Fluorescence anisotropy binding of fluorescent tUIM peptides to K63-Ub2; conditions: fluorescence anisotropy
T1 construct: Ub and K48- and K63-linked diUb and tetraUb were made as described; made in house
Description: Fluorescent Labeling. Rap80 tUIM peptides were fluorescently-labeled on the sulfhydryl group of C121 (see FIG. 1). For longer Rap80 constructs, all cysteines except C121 were mutated to serine for site-specific labeling. Ataxin-3 and Vps27 UIM peptides were labeled on a single cysteine introduced at the C-terminus. Fluorescein-5-maleimide (Pierce) was coupled to cysteines following the manufacturer's instructions. After desalting through Sephadex G-25 resin, fluorescein-labeled tUIM peptides were separated from unlabeled peptides by anion-exchange chromatography (MonoQ column, GE Biosciences) by elution with a NaCl gradient in 50 mM Tris buffer, pH 7.9. The labeled peptides were essentially 100% pure by SDS-PAGE and Coomassie blue staining, and MALDI-TOF mass spectrometry confirmed the addition of a single fluorescein moiety. Fluorescence Anisotropy Binding Assays. Fluorescence anisotropy measurements were made using a Fluoromax 4 fluorometer in L format, thermostatted at 25° C. Excitation and emission monochromators were set at 492 nm and 520 nm, respectively. Slit widths were 3 nm for diUb-binding assays ([…]) or 6 nm for tetraUb-binding assays ([…]). Anisotropies were calculated by the instrument software, and the overall intensity of the fluorescence signal was monitored at each point with the polarizers oriented at the magic angle. All measurements were made in fluorescence buffer (25 mM Na phosphate [pH 7.4], 150 mM NaCl, 5 mM β-mercaptoethanol, 1 mM EDTA, and either 0.005% surfactant P20 (BIACORE) or 0.05% Brij35). Concentrations of the fluorescent proteins were calculated using the fluorescein extinction coefficient at 494 nm, 68000 M^-1 cm^-1. (poly)Ub concentrations were assessed by absorbance at 280 nm using the extinction coefficient 0.16 (mg/ml)^-1 cm^-1 ([…] and Raasi, 2005). Fluorescence anisotropy data were fit with a single-site binding model as described (Wilkinson, 2004). The equilibrium constants for wild-type Vps27 peptide binding to K63 and K48 Ub4 were determined by competition with the fluorescent Vps27 7aa linker peptide as described (Wilkinson, 2004).

K48-Ub2 = molecular target: T2, K48-Ub2 (Homo sapiens, UniProt P0CG47, K48R); assay: Fluorescence anisotropy binding of fluorescent tUIM peptides to K48-Ub2; conditions: single-site fit, 25° C., pH 7.4
T2 construct: Ub and K48- and K63-linked diUb and tetraUb were made as described; made in house
Description: Fluorescence Anisotropy Binding Assays. Fluorescence anisotropy measurements were made using a Fluoromax 4 fluorometer in L format, thermostatted at 25° C. Excitation and emission monochromators were set at 492 nm and 520 nm, respectively. Slit widths were 3 nm for diUb-binding assays (1 mM fluorophore) or 6 nm for tetraUb-binding assays (0.1 mM fluorophore). Anisotropies were calculated by the instrument software, and the overall intensity of the fluorescence signal was monitored at each point with the polarizers oriented at the magic angle. All measurements were made in fluorescence buffer (25 mM Na phosphate [pH 7.4], 150 mM NaCl, 5 mM β-mercaptoethanol, 1 mM EDTA, and either 0.005% surfactant P20 (BIACORE) or 0.05% Brij35). Concentrations of the fluorescent proteins were calculated using the fluorescein extinction coefficient at 494 nm, 68000 M^-1 cm^-1. (poly)Ub concentrations were assessed by absorbance at 280 nm using the extinction coefficient 0.16 (mg/ml)^-1 cm^-1 ([…] and Raasi, 2005). Fluorescence anisotropy data were fit with a single-site binding model as described (Wilkinson, 2004).

monoUb = molecular target: T3, monoUb (Homo sapiens, UniProt P0CG47); assay: Fluorescence anisotropy binding of fluorescent UIM peptides to monoUb
T3 construct: Ub and K48- and K63-linked diUb and tetraUb were made as described; made in house
Description: (§1) Fluorescent Labeling. Rap80 tUIM peptides were fluorescently-labeled on the sulfhydryl group of C121 (see FIG. 1). For longer Rap80 constructs, all cysteines except C121 were mutated to serine for site-specific labeling. Ataxin-3 and Vps27 UIM peptides were labeled on a single cysteine introduced at the C-terminus. Fluorescein-5-maleimide (Pierce) was coupled to cysteines following the manufacturer's instructions. After desalting through Sephadex G-25 resin, fluorescein-labeled tUIM peptides were separated from unlabeled peptides by anion-exchange chromatography (MonoQ column, GE Biosciences) by elution with a NaCl gradient in 50 mM Tris buffer, pH 7.9. […] Fluorescence Anisotropy Binding Assays. Fluorescence anisotropy measurements were made using a Fluoromax 4 fluorometer in L format, thermostatted at 25° C. […] Anisotropies were calculated by the instrument software, and the overall intensity of the fluorescence signal was monitored at each point with the polarizers oriented at the magic angle. All measurements were made in fluorescence buffer (25 mM Na phosphate [pH 7.4], 150 mM NaCl, 5 mM β-mercaptoethanol, 1 mM EDTA, and either 0.005% surfactant P20 (BIACORE) or 0.05% Brij35). Concentrations of the fluorescent proteins were calculated using the fluorescein extinction coefficient at 494 nm, 68000 M^-1 cm^-1. […]

K63-Ub4 and K48-Ub4 = assay: GST pull-down assay with 125I-labeled K63- or K48-Ub4; format: binding
Description: Pull-Down Assays. GST-UBA protein was added to 15 μl of glutathione-agarose and the beads were washed with binding buffer [25 mM phosphate pH 7.4, 150 mM NaCl, 10 mM β-mercaptoethanol, 1 mM EDTA, 0.05% (v/v) Brij35]. ^125I-labeled K63 or K48-Ub4 (1 μM) was then added in 100 μl of binding buffer plus 1 mg ml^−1 BSA, and the beads agitated gently for 20 min. at room temperature. The specific radioactivities of ^125I-labeled K63- and K48-Ub4 were normalized beforehand with unlabeled chains. The beads were then washed quickly 2 or 3 times with binding buffer. The bound chains were eluted with SDS-PAGE sample buffer and resolved by SDSPAGE. The Ub4 bands were excised from the gel and quantified with a gamma-counter. “Bound counts” in FIG. 12d and FIG. 15d is the radioactivity (cpm) for a particular band minus the counts in the corresponding gel slice in the negative-control lane.

K63-Ub4 [1] = molecular target: T4, K63-Ub4 (Homo sapiens, UniProt P0CG47, K63R); assay: SPR of captured GST-UBA proteins with K63-Ub4; format: binding; conditions: SPR (Table 4) versus fluorescence anisotropy (Table 5)
T4 construct: Ub and K48- and K63-linked diUb and tetraUb were made as described; made in house
Description: Surface Plasmon Resonance. SPR analyses was performed on a Biacore 3000 instrument at 25° C. in HBS-EP buffer (Biacore). Anti-GST antibody (Biacore) was immobilized by amine coupling on a Biacore CM5 chip. GST-UBA proteins were captured on a measurement surface at a density of 150-400 RU; an antibody-coupled surface served as the reference. Ubn chains were applied to the chip with a 5 μl/min flow rate and recorded the response; 50 mM glycine pH 1.8 or 15 mM NaOH was used to remove GST-UBA proteins and renew the surface. The data was fit with a single-site binding model as described in Wilkinson, 2004.

K63-Ub4 [2] = molecular target: T4, K63-Ub4; assay: Fluorescence anisotropy binding of fluorescent tUIM peptides to K63-Ub4; conditions: fluorescence anisotropy, single-site fit, 25° C., pH 7.4
Description: as §1

K48-Ub4 [3] = assay: Fluorescence anisotropy binding of fluorescent tUIM peptides to K48-Ub4
Description: as §1

K63-Ub4 [4] = assay: Fluorescence anisotropy binding of fluorescent free UBA domains to K63-Ub4; conditions: free UBA domains
Description: (§2) Fluorescent Labeling. Ede1 UBA, hHR23A UBA1, Dsk2 UBA and Ddi1 UBA were produced as intein fusions and fluorescently labeled using expressed protein ligation as described in Scheibner et al., 2003. The dipeptide used for Ede1 labeling was Cys-Lys, with NHS-rhodamine (Pierce) coupled to the lysine amino group, and was a kind gift from Philip Cole (Johns Hopkins School of Medicine). MALDI mass spectroscopy confirmed the addition of the fluorescent dipeptide to the Ede1 UBA domain and that there was complete cleavage of the initiating methionine residue. hHR23A UBA1, Dsk2, and Ddi1 UBAs were labeled in a similar way, except that the dipeptide contained a fluorescein moiety instead of rhodamine. The fluorescein-labeled dipeptide was made as described in Scheibner et al., 2003. […]
(§3) Fluorescence Anisotropy Binding Assays. Fluorescence anisotropy measurements were performed as described (Sims and Cohen, 2009) using excitation and emission maxima of 492 nm/520 nm (fluorescein), 556 nm/569 nm (Alexa Fluor 546), or 555 nm/578 nm (rhodamine), in binding buffer at 25° C. The concentrations of the fluorescent proteins were calculated using published extinction coefficients (Invitrogen-Molecular Probes). polyUb concentrations were assessed from absorbance at 280 nm using the Ub extinction coefficient of 0.16 (mg per ml)^−1 cm^'1.49. […]

K48-Ub4 [5] = assay: Fluorescence anisotropy binding of fluorescent free UBA domains to K48-Ub4; conditions: free fluorescent UBA domain
Description: as §2, §3

[6] = single-site fit, 25° C., pH 7.4

Substance: PSSHHHHHHSSGLVPRGSHMTEEEQEQEAREVNSQEEEEEELLRKAIAESLNSC(Fluorescein(5-Mal))RPS [UIM2]
Kd (K63-Ub2; text of Example 2): 470 µM
Kd (K48-Ub2): 200 µM
Kd (monoUb): 520 µM

Substance: GST-fmm: functionally monomeric mixture: GST-His homodimers and GST-His/GST-Ede1 heterodimers at about 6:1 (GSATTPKSLAVEELSGMGFTEEEAHNALEKCNWDLEAATNFLLDSA; also: GST-His fusion, mixture of GST-His homodimers and GST-His/GST-Ede1 heterodimers at about 6:1)
Ub4 linkage preference by pull-down (K63-Ub4 and K48-Ub4; 125I-labeled K63-Ub4 versus K48-Ub4): no linkage preference

Substance: PSSHHHHHHSSGLVPRGSHMTEEEQFALALKMSEQEAAAEEEEELLRKAIAESLNSC(Fluorescein(5-Mal))RPS [Rap80 2A linker]
Kd (K63-Ub2; [6]): 110 µM
Kd (K63-Ub4 [2]): 19 µM
Kd (K48-Ub2): 180 µM

Substance: ataxin-3 (WT): human ataxin-3 tandem UIM peptide, 2-residue linker DM
Kd (K63-Ub2; [6]): 91 µM
preference for K48-Ub4 over K63-Ub4 (K48-Ub4 [3]; fluorescence anisotropy Kd values, Table 2): 5 fold
Kd (K48-Ub4 [3]; fluorescence anisotropy, single-site fit, 25° C., pH 7.4): 3.3 µM
Kd (K48-Ub2): 100 µM

Substance: Ddi1
difference in Kd for K63- and K48-Ub4 (K63-Ub4 [4]): < 2 fold
Kd (K48-Ub4 [5]): 50 µM

The next lines start with results.

K63-Ub4 affinity of the GST fusion tighter than the free domain (K63-Ub4 [1]): > 6 fold
Substance: GST-UBA hHR23A UBA1: GST fusion of human hHR23A UBA1 domain; sequence in Table 3

K63-Ub4 affinity of the GST fusion tighter than the free domain (K63-Ub4 [1]): 9 fold
Substance: GST-UBA Ede1: GST fusion of the yeast Ede1 UBA domain, dimeric; sequence in Table 3 (GSATTPKSLAVEELSGMGFTEEEAHNALEKCNWDLEAATNFLLDSA; also: GST fusion, dimeric)
preference for K63-Ub4 over K48-Ub4 by pull-down (K63-Ub4 and K48-Ub4; 125I-labeled Ub4 1 μM, bound counts, listed as GST-Ede1): 12 fold and > 11 fold

Kd (K63-Ub2; [6]): 47 µM
Substance: PSSHHHHHHSSGLVPRGSHMTEEEQFALALKMSEQEAEEEEELLRKAIAESLNSC(Fluorescein(5-Mal))RPS [Rap80 no linker]

Kd (K63-Ub2; [6]): 115 µM
Kd (K63-Ub4 [2]): 20 µM
Kd (K48-Ub2): 143 µM
Substance: PSSHHHHHHSSGLVPRGSHMTEEEQFALALKMSEQEADMEEEEELLRKAIAESLNSC(Fluorescein(5-Mal))RPS [Rap80 ataxin linker]

Kd (K63-Ub2; text of Example 2): 230 µM
Kd (K48-Ub2): 280 µM
Kd (monoUb): 510 µM
Substance: PSSHHHHHHSSGLVPRGSHMTEEEQFALALKMSEQEAREVNSQEEEEEELLNSC(Fluorescein(5-Mal))RPS [UIM1]
